Legend:
HIV [1] = test: anti-HIV activity (MT-4/MTT) of incubates after incubation in dog subcellular liver fractions; assay type: cell-based; conditions: Human immunodeficiency virus 1, MT4, 2 h; after incubation in dog subcellular liver fraction, 120 minutes; MT-4 cells
Description: (§1) The metabolism of the present compounds was studied in subcellular liver fractions (1200×g) of rat, dog or human. The compounds were incubated at a final […] concentration of 30 μM; incubations were performed up to 120 minutes at a final protein concentration equivalent to 1 mg/ml microsomal proteins. Reactions were stopped by the addition of an equal volume (2 ml) of […]. Samples were stored at ≦−18° C. until analysis. […] Table 2 lists IC50 values prior to and after incubation in subcellular liver fractions.
(§2) A rapid, sensitive and automated assay procedure was used for the in vitro evaluation of anti-HIV agents. […] The viability of both HIV- and mock-infected cells was assessed spectrophotometrically via the in situ reduction of 3-(4,5-dimethylthiazol-2-yl)-2,5-diphenyltetrazolium bromide (MTT). […] The percent protection achieved by the compound in HIV-infected cells was calculated by the following formula:
(§3) [formula] whereby (ODT)HIV is the optical density measured with a given concentration of the test compound in HIV-infected cells; (ODC)HIV is the optical density measured for the control untreated HIV-infected cells; (ODC)MOCK is the optical density measured for the control untreated mock-infected cells; all optical density values were determined at 540 nm. […]

HIV [2] = test: anti-HIV activity in MT-4 cells (MTT, HIV-induced cytopathic effect), prior to incubation; assay type: cell-based; conditions: Human immunodeficiency virus 1, MT4; prior to incubation in subcellular liver fractions; HIV-infected MT-4 cells; read-out: IC50 before
Description: as §1, §2, §3

HIV [3] = test: anti-HIV activity (MT-4/MTT) of incubates after incubation in rat subcellular liver fractions; assay type: cell-based; conditions: Human immunodeficiency virus 1, MT4, 2 h; after incubation in rat subcellular liver fraction, 120 minutes; MT-4 cells
Description: as §1, §2, §3

HIV [4] = test: anti-HIV activity (MT-4/MTT) of incubates after incubation in human subcellular liver fractions; assay type: cell-based; conditions: after incubation in human subcellular liver fraction, MT-4 cells
Description: as §1, §2, §3

Structure (SMILES)	melting point [°C]	IC50 (HIV [1]) [nM]	IC50 (HIV [2]) [nM]	IC50 (HIV [3]) [nM]	IC50 (HIV [4]; Human immunodeficiency virus 1, MT4, 0.5 h, 30 minutes) [nM]	IC50 (HIV [4]; Human immunodeficiency virus 1, MT4, 2 h, 120 minutes) [nM]
Cc1cc(C#N)cc(C)c1Oc1nc(N(COCCO)c2ccc(C#N)cc2)ncc1Br [Compound 3]	199 to 200	809	> 1000	–	–	–
CCOCN(c1ccc(C#N)cc1)c1ncc(Br)c(Oc2c(C)cc(C#N)cc2C)n1 [Compound 1]	181 to 182	138	> 1000	175	293	165

— patent US7034019B2, “Prodrugs of HIV replication inhibiting pyrimidines” (Janssen Pharmaceutica N.V., priority 2000, dated 2006)
